Measurements published in patent publication US4452784A, “C-23-Modified derivatives of DMT” (Eli Lilly and Company, priority 1982, dated 1984).
Converted amounts (≈) assume the structure as drawn. Read-outs that look alike come from different tables or passages of the source.

Legend:
Mycoplasma gallisepticum [1] = experiment: Antimycoplasmal activity of DMT derivatives in chicks; type: in vivo; conditions: for Number with Antibodies/Number Tested: antibodies to M. gallisepticum
Description: In these tests infections were induced in chicks by injecting 0.2 ml. of a broth culture of M. gallisepticum into the abdominal air sac of two- to three-day-old chicks. The compounds were administered subcutaneously at a dose of 60 mg/kg once only on the day of infection or, at the same level, two times on the day of infection and two times on the first day post-infection. Twenty-one days post-infection, the chicks were weighed, a blood sample was taken, and the chicks were sacrificed. The presence or absence of air-sac lesions was recorded.

[2] = test system: Pasteurella hemolytica 23C; experiment: Antibiotic activity, broth-dilution microtiter test (MIC); type: cell-based; conditions: P. hemolytica 23C
Description: (§1) The MIC's in Table III were determined by standard agar-dilution assays. The MIC's in Table IV were obtained using a conventional broth-dilution microtiter test.
(§2) Antibiotic Activity of DMT Derivatives^a

Mycoplasma synoviae = experiment: as above; type: cell-based; conditions: Mycoplasmopsis synoviae, M. synoviae
Description: as §1, §2

Mycoplasma gallisepticum [3] = experiment: as above; type: cell-based; conditions: Mycoplasmoides gallisepticum, M. gallisepticum
Description: as §1, §2

[4] = test system: Pasteurella hemolytica 41D; experiment: as above; type: cell-based; conditions: P. hemolytica 41D
Description: as §1, §2

[5] = test system: Pasteurella multocida 40G; experiment: as above; type: cell-based; conditions: P. multocida 40G
Description: as §1, §2

Streptococcus bovis 80 = experiment: as above; type: cell-based; conditions: S. bovis 80
Description: as §1, §2

[6] = test system: Pasteurella multocida 68C; experiment: as above; type: cell-based; conditions: P. multocida 68C
Description: as §1, §2

[7] = test system: Pasteurella hemolytica 22C; experiment: as above; type: cell-based
Description: as §1, §2

[8] = test system: Pasteurella multocida 17E; experiment: as above; type: cell-based; conditions: P. multocida 17E, bovine isolate
Description: as §1, §2

[9] = test system: Pasteurella multocida 60A; experiment: as above; type: cell-based; conditions: P. multocida 60A, avian isolate
Description: as §1, §2

Mycoplasma hyorhinis = experiment: as above; type: cell-based
Description: as §1, §2

[10] = test system: Pasteurella multocida 22A; experiment: as above; type: cell-based; conditions: P. multocida 22A
Description: as §1, §2

Staphylococcus aureus = experiment: as above; type: cell-based; conditions: S. aureus
Description: as §1, §2

Streptococcus Group 9960 = experiment: Antibiotic activity, standard agar-dilution assay (MIC); type: cell-based; conditions: GROUP9960
Description: as §1
(§3) Antibiotic Activity of C-23 Modified Derivatives of DMT^a

[11] = test system: Haemophilus influenzae Holt; experiment: as above; type: cell-based; conditions: H. influenzae Holt, ampicillin-sensitive strain
Description: as §1, §3

[12] = test system: Streptococcus Group D X66; experiment: as above; type: cell-based
Description: as §1, §3

[13] = test system: Staphylococcus aureus X400; experiment: as above; type: cell-based
Description: as §1, §3

[14] = test system: Haemophilus influenzae R52; experiment: as above; type: cell-based; conditions: H. influenzae R52, ampicillin-resistant strain
Description: as §1, §3

[15] = test system: Staphylococcus aureus S13E; experiment: as above; type: cell-based
Description: as §1, §3

[16] = test system: Staphylococcus epidermidis EPI2; experiment: as above; type: cell-based; conditions: S. epidermidis EPI2
Description: as §1, §3

[17] = test system: Staphylococcus epidermidis EPI1; experiment: as above; type: cell-based; conditions: S. epidermidis EPI1
Description: as §1, §3

[18] = test system: Staphylococcus aureus X1.1; experiment: as above; type: cell-based; conditions: S. aureus X1.1
Description: as §1, §3

[19] = test system: Staphylococcus aureus V41; experiment: as above; type: cell-based
Description: as §1, §3

[20] = test system: Streptococcus pneumoniae Park I; experiment: as above; type: cell-based; conditions: S. pneumoniae Park I
Description: as §1, §3

[21] = test system: Streptococcus pyogenes C203; experiment: as above; type: cell-based; conditions: S. pyogenes C203
Description: as §1, §3

[22] = test system: Streptococcus pyogenes C203; experiment: ED50 in mice experimentally infected with S. pyogenes C203; type: in vivo; conditions: doses given 1 and 4 hours postinfection
Description: The C-23 modified derivatives of DMT of this invention have shown in vivo antimicrobial activity against experimentally-induced infections in laboratory animals. When two doses of test compound were administered to mice experimentally infected with S. pyogenes C203, the activity observed was measured as an ED50 value [effective dose in mg/kg to protect 50% of the test animals: see Warren Wick, et al., J. Bacteriol. 81, 233-235 (1961)].
^a mg/kg × 2; doses given 1 and 4 hours postinfection

[23] = subcutaneous 60 mg/kg × 1, 21 days post-infection
[24] = subcutaneous 60 mg/kg × 4, 21 days post-infection
[25] = agar dilution, S. aureus V41, penicillin-resistant strain, read-out: MIC
[26] = broth-dilution microtiter, P. hemolytica 22C, read-out: MIC
[27] = broth-dilution microtiter, M. hyorhinis, read-out: MIC
[28] = agar dilution, Streptococcus Group D X66, read-out: MIC
[29] = agar dilution, S. aureus X400, methicillin-resistant strain, read-out: MIC

Compound	MIC [2]	MIC (Mycoplasma synoviae)	MIC (Mycoplasma gallisepticum [3])	MIC [4]	MIC [5]	MIC (Streptococcus bovis 80)	MIC [6]	MIC [8]	MIC [9]	MIC [10]	MIC (Staphylococcus aureus)	MIC (Streptococcus Group 9960)	MIC [11]	MIC [15]	MIC [16]	MIC [17]	MIC [18]	MIC [20]	MIC [21]	ED50 ([22]; C203, oral)	further results
CCC1OC(=O)CC(O)C(C)C(OC2OC(C)C(OC3CC(C)(O)C(O)C(C)O3)C(N(C)C)C2O)C(CC=O)CC(C)C(=O)C=CC(C)=CC1CN=[N+]=[N-] (centres unmarked) [Compound 1, 23-Deoxy-23-Azido-DMT]	25 µg/mL (≈ 32.6 µM)	0.78 µg/mL (≈ 1.02 µM)	0.19 µg/mL (≈ 0.248 µM)	25 µg/mL (≈ 32.6 µM)	6.25 µg/mL (≈ 8.15 µM)	0.39 µg/mL (≈ 0.509 µM)	6.25 µg/mL (≈ 8.15 µM)	6.25 µg/mL (≈ 8.15 µM)	6.25 µg/mL (≈ 8.15 µM)	12.5 µg/mL (≈ 16.3 µM)	1.56 µg/mL (≈ 2.03 µM)	0.25 µg/mL (≈ 0.326 µM)	8 µg/mL (≈ 10.4 µM)	0.25 µg/mL (≈ 0.326 µM)	0.25 µg/mL (≈ 0.326 µM)	0.25 µg/mL (≈ 0.326 µM)	0.25 µg/mL (≈ 0.326 µM)	0.06 µg/mL (≈ 0.0782 µM)	0.125 µg/mL (≈ 0.163 µM)	68 mg/kg	Number with Antibodies/Number Tested (Mycoplasma gallisepticum [1]; [23]): 5/10; Number with Antibodies/Number Tested (Mycoplasma gallisepticum [1]; [24]): 0/10; Mortality (Mycoplasma gallisepticum [1]; [23]): 0/10; Number with Air-Sac Lesions/Number Treated (Mycoplasma gallisepticum [1]; [23]): 3/10; Mortality (Mycoplasma gallisepticum [1]; [24]): 0/10; Number with Air-Sac Lesions/Number Treated (Mycoplasma gallisepticum [1]; [24]): 0/10; MIC ([7]; 22C): 25 µg/mL (≈ 32.6 µM); MIC (Mycoplasma hyorhinis): > 50 µg/mL; MIC [12]: 0.5 µg/mL (≈ 0.652 µM); MIC ([13]; X400): 0.5 µg/mL (≈ 0.652 µM); MIC [14]: 8 µg/mL (≈ 10.4 µM); MIC [19, 25]: 0.25 µg/mL (≈ 0.326 µM); ED50 ([22]; C203, sc, subcutaneous): 10.5 mg/kg
CCC1OC(=O)CC(O)C(C)C(OC2OC(C)C(OC3CC(C)(O)C(O)C(C)O3)C(N(C)C)C2O)C(CC=O)CC(C)C(=O)C=CC(C)=CC1CN (centres unmarked) [Compound 2, 23-Deoxy-23-amino-DMT]	12.5 µg/mL (≈ 16.9 µM)	0.78 µg/mL (≈ 1.05 µM)	1.56 µg/mL (≈ 2.11 µM)	12.5 µg/mL (≈ 16.9 µM)	12.5 µg/mL (≈ 16.9 µM)	1.56 µg/mL (≈ 2.11 µM)	12.5 µg/mL (≈ 16.9 µM)	6.25 µg/mL (≈ 8.44 µM)	12.5 µg/mL (≈ 16.9 µM)	12.5 µg/mL (≈ 16.9 µM)	6.25 µg/mL (≈ 8.44 µM)	8 µg/mL (≈ 10.8 µM)	16 µg/mL (≈ 21.6 µM)	4 µg/mL (≈ 5.4 µM)	8 µg/mL (≈ 10.8 µM)	4 µg/mL (≈ 5.4 µM)	2 µg/mL (≈ 2.7 µM)	0.5 µg/mL (≈ 0.675 µM)	1 µg/mL (≈ 1.35 µM)	> 100 mg/kg	MIC [7, 26]: 25 µg/mL (≈ 33.7 µM); MIC (Mycoplasma hyorhinis; [27]): 25 µg/mL (≈ 33.7 µM); MIC [12, 28]: 8 µg/mL (≈ 10.8 µM); MIC [13, 29]: 8 µg/mL (≈ 10.8 µM); MIC [14]: 16 µg/mL (≈ 21.6 µM); MIC [19, 25]: 8 µg/mL (≈ 10.8 µM); ED50 ([22]; C203, sc, subcutaneous): < 1.5 mg/kg
CCC1OC(=O)CC(O)C(C)C(OC2OC(C)C(OC3CC(C)(O)C(O)C(C)O3)C(N(C)C)C2O)C(CC=O)CC(C)C(=O)C=CC(C)=CC1CNC(=O)Cc1ccccc1 (centres unmarked) [Compound 3, 23-Deoxy-23-(phenylacetyl)amino-DMT]	25 µg/mL (≈ 29.1 µM)	0.39 µg/mL (≈ 0.454 µM)	0.09 µg/mL (≈ 0.105 µM)	25 µg/mL (≈ 29.1 µM)	25 µg/mL (≈ 29.1 µM)	0.19 µg/mL (≈ 0.221 µM)	25 µg/mL (≈ 29.1 µM)	12.5 µg/mL (≈ 14.6 µM)	25 µg/mL (≈ 29.1 µM)	50 µg/mL (≈ 58.2 µM)	1.56 µg/mL (≈ 1.82 µM)	0.5 µg/mL (≈ 0.582 µM)	8 µg/mL (≈ 9.31 µM)	0.5 µg/mL (≈ 0.582 µM)	1 µg/mL (≈ 1.16 µM)	0.5 µg/mL (≈ 0.582 µM)	0.5 µg/mL (≈ 0.582 µM)	0.25 µg/mL (≈ 0.291 µM)	0.25 µg/mL (≈ 0.291 µM)	> 100 mg/kg	Number with Antibodies/Number Tested (Mycoplasma gallisepticum [1]; [23]): 8/9; Number with Antibodies/Number Tested (Mycoplasma gallisepticum [1]; [24]): 3/10; Mortality (Mycoplasma gallisepticum [1]; [23]): 1/10; Number with Air-Sac Lesions/Number Treated (Mycoplasma gallisepticum [1]; [23]): 8/10; Mortality (Mycoplasma gallisepticum [1]; [24]): 0/10; Number with Air-Sac Lesions/Number Treated (Mycoplasma gallisepticum [1]; [24]): 0/10; MIC [7, 26]: 50 µg/mL (≈ 58.2 µM); MIC (Mycoplasma hyorhinis; [27]): 1.56 µg/mL (≈ 1.82 µM); MIC [12, 28]: 0.5 µg/mL (≈ 0.582 µM); MIC ([13]; X400): 1 µg/mL (≈ 1.16 µM); MIC [14]: 8 µg/mL (≈ 9.31 µM); MIC ([19]; V41): 1 µg/mL (≈ 1.16 µM); ED50 ([22]; C203, sc, subcutaneous): 3.8 mg/kg
CCC1OC(=O)CC(O)C(C)C(OC2OC(C)C(OC3CC(C)(O)C(O)C(C)O3)C(N(C)C)C2O)C(CC=O)CC(C)C(=O)C=CC(C)=CC1CSc1ccccc1 (centres unmarked) [Compound 4, 23-Deoxy-23-(phenyl)thio-DMT]	25 µg/mL (≈ 30 µM)	0.19 µg/mL (≈ 0.228 µM)	≤ 0.05 µg/mL	12.5 µg/mL (≈ 15 µM)	6.25 µg/mL (≈ 7.49 µM)	0.19 µg/mL (≈ 0.228 µM)	12.5 µg/mL (≈ 15 µM)	6.25 µg/mL (≈ 7.49 µM)	6.25 µg/mL (≈ 7.49 µM)	12.5 µg/mL (≈ 15 µM)	0.39 µg/mL (≈ 0.468 µM)	0.125 µg/mL (≈ 0.15 µM)	4 µg/mL (≈ 4.8 µM)	0.5 µg/mL (≈ 0.599 µM)	0.5 µg/mL (≈ 0.599 µM)	0.5 µg/mL (≈ 0.599 µM)	0.5 µg/mL (≈ 0.599 µM)	0.03 µg/mL (≈ 0.036 µM)	0.125 µg/mL (≈ 0.15 µM)	71 mg/kg	Number with Antibodies/Number Tested (Mycoplasma gallisepticum [1]; [23]): 8/10; Number with Antibodies/Number Tested (Mycoplasma gallisepticum [1]; [24]): 7/10; Mortality (Mycoplasma gallisepticum [1]; [23]): 0/10; Number with Air-Sac Lesions/Number Treated (Mycoplasma gallisepticum [1]; [23]): 7/10; Mortality (Mycoplasma gallisepticum [1]; [24]): 0/10; Number with Air-Sac Lesions/Number Treated (Mycoplasma gallisepticum [1]; [24]): 3/10; MIC [7, 26]: 25 µg/mL (≈ 30 µM); MIC (Mycoplasma hyorhinis; [27]): 0.78 µg/mL (≈ 0.935 µM); MIC [12, 28]: 0.25 µg/mL (≈ 0.3 µM); MIC [13, 29]: 0.5 µg/mL (≈ 0.599 µM); MIC [19, 25]: 0.25 µg/mL (≈ 0.3 µM); ED50 ([22]; C203, sc, subcutaneous): < 25 mg/kg
